≈ marks a conversion by molar mass, not a printed value.
Tests used:
[1] = cited from earlier work; for Kow: octanol-water coefficient; for log10(Kow): organic solvents used for extraction of HA-stabilized CNTs (FIG. 9)
[2] = water solubility of the HOC; cited from earlier work
[3] = Sorption kinetics of HOCs onto Mag-PCMAs from contaminated water; assay type: physicochemical; details: 20 mg/L HA; initial diuron 34.3 μmol/L
Description: Sorption kinetics of HOCs onto Mag-PCMAs from contaminated water. The HOC sorption kinetics onto Mag-PCMAs were determined by batch experiments. Aliquots (50 mg) of Mag-PCMAs were mixed in 10 ml glass tubes with 10.0 ml of an aqueous solution of each HOC. […] The caps of the tubes were lined with PTFE. The tubes were shaken at 60 rpm at 22±2° C. continuously. At the end of 5, 10, 20, 30, 45, 60, 90, 120, 180, 200, 360, 720, and 1440 minutes, one tube was taken out. A magnet was then used to separate the Mag-PCMAs from the aqueous phase. […] 1.0 ml of the supernatant was taken for HOC analysis on a high performance liquid chromatography (HPLC). The amount of HOC sorbed was calculated as the difference between the initial and final HOC mass in aqueous phase. To order to investigate the effect of the presence of HA on HOC sorption kinetics, diuron sorption kinetics were determined in the presence of 20 mg/L HA (organic carbon content), an environmental relevant HA concentration.^29 The initial diuron concentration was 34.3 μmol/L.

[4] = benzalkonium chloride concentration of 6.0 g/L; cited from earlier work

For `CCNc1nc(Cl)nc(NC(C)C)n1` [Atrazine, 2-chloro-4-ethylamino-6-isopropylamino-1,3,5-triazine], the Kow [1] is given as 416.

In the case of `c1ccc(-c2ccccc2)cc1` [Biphenyl, biphenyl], the Solubility [2] is given as 44 mg/L (≈ 285 µM) and the Kow [1] is given as 7079.

For `CN(C)C(=O)Nc1ccc(Cl)c(Cl)c1` [Diuron, 3-(3,4-dichlorofenyl)-1,1-dimethylurea], the “effect of presence of HA on sorption kinetics” value [3] is listed as “no significant effect”, the Solubility [2] is listed as 180 mg/L (≈ 772 µM) and the Kow [1] is listed as 660. For the same compound, the “solubility of diuron relative to that in absence of the surfactant” value [4] was “about 20 times”.

In the case of `c1ccc2ccccc2c1` [Naphthalene, naphthalene], the Solubility [2] is listed as 225 mg/L (≈ 1760 µM).

In the case of `ClC=C(Cl)Cl` [TCE, trichloroethene], the “log10(Kow)” value [1] is given as 2.33.

For `CCCCCC` [hexane], the “log10(Kow)” value [1] is given as 4.00.

For `CCCCCCCC` [octane], the “log10(Kow)” value [1] is given as 5.18.

From US20120037840A1, “USE OF MAGNETIC NANOPARTICLES TO REMOVE ENVIRONMENTAL CONTAMINANTS” (priority 2008, published 2012)
